Data: patent EP1394219A1, “PH sensitive cyanine dyes as reactive fluorescent reagents” (CARNEGIE MELLON UNIVERSITY, priority 1999, dated 2000)
Like-named read-outs stand apart in the source and are kept apart here.

Tests used:
[1] = Fluorescence and UV absorbance properties of the dyes in phosphate buffers of different pH, pKa from emission intensity ratio I/Io; conditions: for λmax pH 5.00 / λmaxpH 10.00: UV absorbance maximum; for λmax pH 5.00 / λmaxpH 10.00 / λEm(nm): phosphate buffer; for λmaxpH 10.00: pH 10.00; for λEm(nm): fluorescence emission maximum; for pKa: phosphate buffers, pH 5.85
Procedure: (§1) The pKa was measured as the ratio of emission intensity at the pH measured and the emission intensity for maximum emission, or I/Io. […] The pKa can be calculated to be where I/Io = 0.5 or where the fluorescent probe is 50% protonated.

[2] = cited from earlier work; for pKa: product literature value, may be different in a cellular environment
[3] = phosphate buffer, pH 5.85
Procedure: as §1

λmax pH 5.00 [1] [nm]	λmaxpH 10.00 [1] [nm]	λEm(nm) [1] [nm]	pKa [1]	pKa [3]	SMILES	solubility in DMSO [2]	pKa [2]
650	531	665	7.25		C[N+]1=C(/C=C/C=C/C=C2/Nc3ccc(S(=O)(=O)O)cc3C2(C)C)C(C)(C)c2cc(CN)ccc21 [Compound 8]		
					CN(C)Cc1c2ccccc2c(CN(C)C)c2ccccc12 [LYSOSENSOR BLUE DND-192]	soluble	7.5
					O=c1c2cccc3c(NCCN4CCOCC4)ccc(c32)c2nc3ccccc3n12 [LYSOSENSOR GREEN DND-189]	soluble	5.2
					c1ccc2c(CN3CCOCC3)c3ccccc3c(CN3CCOCC3)c2c1 [LYSOSENSOR BLUE DND-167]	soluble	5.1
552	433	580	9.8		CC1(C)/C(=C\C=C\c2sc3ccccc3[n+]2CCCCS(=O)(=O)O)Nc2ccc(CC(=O)O)cc21 [Compound 6]		
655	522	680		7.25	CC1(C)C(/C=C/C=C/C=C2Nc3ccc4c(S(=O)(=O)O)cc(S(=O)(=O)O)cc4c3C2(C)C)=[N+](CCCCCC(=O)O)c2ccc(S(=O)(=O)[O-])cc21 [Compound 9]		
					CN(C)CCNc1ccc2c3c1cccc3c(=O)n1c3ccccc3nc21 [LYSOSENSOR GREEN DND-153]	soluble	7.5
640	531	670	6.85		CC1(C)\C(=C/C=C/C=C/c2sc3ccccc3[n+]2CCCCCC(=O)O)Nc2ccc(S(=O)(=O)O)cc21 [Compound 7]		
653	501	660		7.5	CC1(C)C(=C/C=C/C=C/C2=[N+](CCCCCC(=O)NN)c3ccc(S(=O)(=O)[O-])cc3C2(C)C)Nc2ccc(S(=O)(=O)O)cc21 [Compound 10]		
550	476	565		7.75	CC1(C)C(=CC=CC2=[N+](CCCCCC(=O)O)c3ccc(S(=O)(=O)[O-])cc3C2(C)C)Nc2ccc(S(=O)(=O)O)cc21 [Compound 3.39]		
650	515	665		6.4	CC1(C)C(=C/C=C/C=C/C2=[N+](CCCCS(=O)(=O)[O-])c3ccc(CC(=O)O)cc3C2(C)C)Nc2ccc(S(=O)(=O)O)cc21 [Compound 4]		
650	484	665		7.5	CC[N+]1=C(/C=C/C=C/C=C2Nc3ccc(CC(=O)O)cc3C2(C)C)C(C)(C)c2cc(S(=O)(=O)[O-])ccc21 [Compound 5]		
